# Measured values published in US8715677B2, “Immunological uses of immunomodulatory compounds for vaccine and anti-infectious disease therapy” (Celgene Corporation, priority 2005, dated 2014).
# Columns and labels:
# Type in all cases: cell-based
# Raji cells = test: Direct effects on NHL tumor cells, alone or with anti CD20 antibodies; conditions: for effect in combination with anti CD20 antibody B1: 10 μM / up to 10 μM
# Experimental: Direct effects of IMiDs on NHL tumor cells were tested by treating Raji cells with IMiDs alone, or in combination with anti CD20 antibodies B1 or rituxan. IMiD 1 alone caused up to 40% inhibition of proliferation at 10 μM in Raji cells, which corresponded to G1 arrest.
# regulatory T cells = test: Treg suppression of anti-CD3 mAb activated CD4+CD25- cell proliferation; conditions: for suppressive function of Treg on anti-CD3 mAb activated CD4+CD25- cells: pre-incubation of Treg with compound
# Experimental: An assay in which the ability of isolated Treg to suppress anti-CD3 mAb activated CD4+CD25− cells was performed.
# Regulatory T cells were isolated by the Dynal T regulatory cell isolation kit, and treated for 24 hours with varying concentrations of an immunomodulatory compound (Actimid™ or lenalidomide) or DMSO. The cells were washed and incubated at a 1:2 ratio with CD25^−CD4^+ cells, which were also isolated by the Dynal T regulatory cell isolation kit. Results were expressed as the mean % change in proliferation compared to the cpms obtained from DMSO treated CD25^+ cells incubated with CD25^− cells.
# RPMI-8226 MM cell lines = test: Cytotoxicity of γδ T cells, chromium release assay
# Experimental: Gamma delta T cells were treated with a single dose of 25 μM IPP and weekly with 150 U/ml of IL-2 for 3 weeks and 1 day. RPMI-8226 target cells were incubated overnight with 50 μM pamidronate then treated with 3MBq 51Cr. Target, and effector cells were incubated at different ratios and chromium release was assayed after 4 hours. To determine the effects of Actimid™, the compound was either included in the 22 day preincubation before the assay and in the chromium release step, or was included during the chromium release assay.
# Gamma delta cells were treated with a single dose of 25 μM IPP and weekly with 150 U/ml of IL-2 for 22 days. RPMI-8226 target cells were incubated overnight with 50 μM pamidronate, then treated with 3 MBq 51 Cr. Target and effector cells were incubated at various ratios with fresh Actimid™ and chromium release assayed after 4 hours. Actimid™ was also added to some wells for the 22 day pretreatment with IL-2 and IPP (FIG. 9A) or just for the 4 hr chromium release assay (FIG. 9B).
# γδ T cells [1] = test: IFN-γ production by γδ T cells in co-culture with tumor cells; conditions: co-culture with RPMI-8226 MM cells, with or without pamidronate; FIG. 8
# Experimental: Tumor cells pre-incubated with (FIG. 8B) or without (FIG. 8A) pamidronate were incubated with δγ T cells at different tumor (RPMI-8226 MM) to γδ T cells ratios as indicated in FIG. 8. Some of the cells were further treated by Actimid™. Intracellular IFN-gamma production was measured by flow cytometry.
# γδ T cells [2] = test: Apoptosis of γδ T cells (annexin V PE / 7-AAD); conditions: with or without IPP; FIG. 6
# Experimental: Gamma delta T cells were treated with a single dose of 25 μM IPP and weekly with 150 U/ml of IL-2 for 4 weeks and 3 days. Cells were then either left untreated or treated with Actimid™, IPP or Actimid™ and IPP. Apoptosis was assessed by staining of cells with annexin V PE and 7-AAD at various time points and analysis using a FACSCalibur.
# Gamma delta T cells were treated with a single dose of 25 μM IPP and weekly with 150 U/ml of IL-2 for 31 days. Cells were then either left untreated or treated with Actimid™, IPP, or Actimid™ and IPP in combination. Apoptosis was assessed by staining of cells with annexin V PE and 7-AAD at the stated time points and analysis using a FACSCalibur. Annexin V PE negative/7-AAD negative cells are designated live, annexin V PE positive/7-AAD negative early apoptotic, annexin V PE positive/7-AAD positive late apoptotic and annexin V PE negative/7-AAD positive dead.
# γδ T cells [3] = test: Cytokine production by γδ T cells
# Experimental: Purified γδ T cells were stimulated with IPP±IMiDs ([…]) or with the MM cell line RPMI-8226 (±IMiDs ([…])) in 24 well plates and were incubated 8-72 hours. Cell-free supernatants were collected and stored at −70° C. until assayed by ELISA. IFN-γ, TNF-α and IL-2 were measured by ELISA (BD pharmingen). For fresh δγ preps, PBMCs were stimulated with plate bound anti-CD3 (1.25 μg/ml) for 48 hours and the expression of TNF-α, IFNγ, IL-2 and IL-4 were measured by intracellular FACS on cells stained for γδ TCR.
# The effects of Actimid™ on IFN-γ, TNF-α, and IL-4 were examined in freshly prepared γδ T cells and γδ T cell lines stimulated with IPP.
# [4] = test system: Rituximab-resistant cell line 4RH; test: Rituximab-mediated ADCC by primed PBMC, 51Cr release, 4RH cells
# Experimental: (§1) Rituximab-resistant cell lines (RRCL) were generated by chronic exposure of Raji cells to escalating doses of rituximab alone (2R) or along with human complement (4RH). […] To study the effects of lenalidomide-priming of PBMC's against RRCL, peripheral blood mononuclear cells from healthy donors were cultured with either DMSO or lenalidomide (at final concentrations of 10 or 20 μg/ml), with or without IL-2 (20 IU/ml), over a 5-day period at 37° C., 5% CO2. Parentral Raji, and RRCL (2R and 4RH) were labeled with ^51Cr and exposed to either rituximab or trastuzumab (Isotype control at 20 μg/ml) in the presence of an IMiD or control stimulated-PBMCs (Effector:Target ratio of 40:1). ^51Cr release was measured and the percentage of lysis was calculated. Statistical differences were analyzed by chi-square test.
# [5] = test system: Rituximab-resistant cell line 2R; test: Rituximab-mediated ADCC by primed PBMC, 51Cr release, 2R cells; conditions: E:T 40:1
# Experimental: as §1
# Gab2 = Gab2 phosphorylation in anti-CD3/CD28 stimulated Jurkat T cells; conditions: at about 1 μM, dose-dependent
# Source text: The Gab proteins, including Gab1, Gab2 and Gab3 comprise a growing family of phospho-tyrosine regulated scaffolding molecules involved in RTK signal transduction. Phosphorylation of Gab1 in B cells is associated with P13-kinase activity and cell proliferation. While Gab1 is expressed in B cells, only Gab2 is expressed in T cells. Although Gab2 is tyrosine phosphorylated upon TCR activation by ZAP-70, it functions as a negative regulator of TCR signaling via a Shp-2 dependent mechanism. Overexpression of Gab2 in T cells results in the inhibition of IL-2 production (Yamasaki et al., J. Biol. Chem., 2001). The effect of lenalidomide on Gab2 phosphorylation and activation in anti-CD3/CD28 stimulated Jurkat T cells was examined. Lenalidomide inhibited Gab2 phosphorylation dose-dependently (with approximately 50% inhibition at about 1 μM) in a manner that correlated with T cell costimulation and enhancement of IL-2 production.
# Foxp3 = Foxp3 expression in CD4+CD25+ cells (intracellular staining); conditions: CD4+CD25+ cells incubated 24 hours; FIG. 3
# Experimental: CD4^+CD25^+ cells were incubated for 24 hours with varying concentrations of DMSO, Actimid™, lenalidomide, or thalidomide and then washed twice with RPMI medium. Cells were stained with CD152-PE, CD4-PERCP, and CD25-APC. Intracellular Foxp3 staining and CD152 staining were carried out after permeabilizing the CD4^+ CD25^+ cells. Results were expressed as percentage of expression of Foxp3 in the CD4^+CD25^+ population or the CD4^+CD25^− population.
# [6] = TCR γδ cells within freshly prepared PBMC population
structure (smiles),measurement,setting,value
"Nc1cccc2c1C(=O)N(C1CCC(=O)NC1=O)C2=O (centres unmarked) [Actimid, 4-(amino)-2-(2,6-dioxo(3-piperidyl))-isoindoline-1,3-dione]",effect in combination with rituxan,Raji cells; 10 μM,slight additive effect
same,effect in combination with anti CD20 antibody B1,Raji cells,small additive effect
same,suppressive function of Treg on anti-CD3 mAb activated CD4+CD25- cells,regulatory T cells,inhibits the suppressive function
same,cytotoxicity of γδ T cells toward RPMI-8226 MM cell lines,"RPMI-8226 MM cell lines; compound added during the 4 hr chromium release assay only, FIG. 9B",enhanced
same,cytotoxicity of γδ T cells toward RPMI-8226 MM cell lines,"RPMI-8226 MM cell lines; compound added during the 22 day pretreatment, FIG. 9A",enhanced
same,IFN-γ production by γδ T cells,γδ T cells [1],augmented
same,apoptosis in γδ T cells,γδ T cells [2],protection against apotosis
same,production of IFN-γ,γδ T cells [3]; [6],enhanced
same,production of TNF-α,γδ T cells [3]; [6],enhanced
same,production of IFN-γ,γδ T cells [3]; γδ T cells stimulated with IPP,enhanced
same,production of IL-4,γδ T cells [3]; γδ T cells stimulated with IPP,not
Nc1cccc2c1CN(C1CCC(=O)NC1=O)C2=O (centres unmarked) [IMiD],mean % of lysis by ADCC,[4]; IMiD exposed PBMC,26.5+/−1.83%
same,mean % of lysis by ADCC,[4]; combination IMiD/IL-2 exposed PBMC,38.4+/−4.1%
same,"rituximab-mediated ADCC, mean % lysis",[5]; PBMC exposed to IMiD for 5 days,26.9+/−1.18%
same,"rituximab-mediated ADCC, mean % lysis",[5]; PBMC exposed to IMiD+IL-2 for 5 days,38.4+/−4.14%
"Nc1cccc2c1CN(C1CCC(=O)NC1=O)C2=O (centres unmarked) [lenalidomide, 3-(4-amino-1-oxo-1,3-dihydro-isoindol-2-yl)-piperidine-2,6-dione]",inhibition of Gab2 phosphorylation,Gab2,approximately 50%
same,effect in combination with anti CD20 antibody B1,Raji cells,minimal
same,suppressive function of Treg on anti-CD3 mAb activated CD4+CD25- cells,regulatory T cells,inhibits the suppressive function
"O=C1CCC(N2C(=O)c3ccccc3C2=O)C(=O)N1 (centres unmarked) [thalidomide, reference compound]","proliferation of CD25- cells in the presence of CD25+CD4+ cells, compared to DMSO treated CD4+CD25+ cells","regulatory T cells; Treg treated 24 hours, washed, 1:2 ratio with CD25-CD4+ cells, FIG. 2",little effect
same,Foxp3 expression,Foxp3,little effects
